{"source": "patent EP4786468A1", "about": "“CRYSTALLINE FORM OF HDAC6 INHIBITOR AND PREPARATION METHOD THEREFOR” (Suzhou Genhouse Bio Co., Ltd., priority 2023, dated 2025)", "key": {"[1]": {"test": "Phase I metabolic stability in liver microsomes", "type": "in vitro ADME, beagle dogs", "conditions": "DLM", "description": "(§1) Evaluation of the Phase I metabolic stability of the test compound in liver microsomes from CD-1 mice (MLM), Sprague-Dawley rats (RLM), beagle dogs (DLM), cynomolgus monkeys (CLM), and humans (HLM).\n(§2) The animal and human liver microsomes used in this test system were purchased from Xenotech, Corning, or other qualified suppliers and stored in a freezer below -60°C before use.\n(§3) The test and control compounds were incubated with animal and human liver microsomes at 37±1°C for a certain period, with a maximum incubation time of 60 minutes. Samples were taken at specified time points, and the reaction was terminated with acetonitrile or other organic solvents containing an internal standard. After centrifugation, the resulting supernatant was analyzed using liquid chromatography-tandem mass spectrometry (LC-MS/MS).\n(§4) 73.21 g of dipotassium hydrogen phosphate trihydrate and 10.78 g of potassium dihydrogen phosphate were dissolved in 4000 mL of ultrapure water. The pH of the solution was adjusted to 7.40±0.10 using 10% phosphoric acid or 1 M potassium hydroxide, with a final concentration of 100 mM. […]\n(§5) Sample analysis was performed using liquid chromatography-tandem mass spectrometry (LC-MS/MS), without calibration curves and quality control samples. Semi-quantitative determination was performed using the ratio of the analyte peak area to the internal standard peak area. […]"}, "[2]": {"test": "Phase I metabolic stability in liver microsomes", "type": "in vitro ADME, CD-1 mice", "conditions": "MLM", "description": "as §1, §2, §3, §4, §5"}, "[3]": {"biological_target": "T1, HDAC6 (Homo sapiens, UniProt Q9UBN7)", "T1 construct": "purchased Abcam", "T1 sequence (Q9UBN7 1-1215)": "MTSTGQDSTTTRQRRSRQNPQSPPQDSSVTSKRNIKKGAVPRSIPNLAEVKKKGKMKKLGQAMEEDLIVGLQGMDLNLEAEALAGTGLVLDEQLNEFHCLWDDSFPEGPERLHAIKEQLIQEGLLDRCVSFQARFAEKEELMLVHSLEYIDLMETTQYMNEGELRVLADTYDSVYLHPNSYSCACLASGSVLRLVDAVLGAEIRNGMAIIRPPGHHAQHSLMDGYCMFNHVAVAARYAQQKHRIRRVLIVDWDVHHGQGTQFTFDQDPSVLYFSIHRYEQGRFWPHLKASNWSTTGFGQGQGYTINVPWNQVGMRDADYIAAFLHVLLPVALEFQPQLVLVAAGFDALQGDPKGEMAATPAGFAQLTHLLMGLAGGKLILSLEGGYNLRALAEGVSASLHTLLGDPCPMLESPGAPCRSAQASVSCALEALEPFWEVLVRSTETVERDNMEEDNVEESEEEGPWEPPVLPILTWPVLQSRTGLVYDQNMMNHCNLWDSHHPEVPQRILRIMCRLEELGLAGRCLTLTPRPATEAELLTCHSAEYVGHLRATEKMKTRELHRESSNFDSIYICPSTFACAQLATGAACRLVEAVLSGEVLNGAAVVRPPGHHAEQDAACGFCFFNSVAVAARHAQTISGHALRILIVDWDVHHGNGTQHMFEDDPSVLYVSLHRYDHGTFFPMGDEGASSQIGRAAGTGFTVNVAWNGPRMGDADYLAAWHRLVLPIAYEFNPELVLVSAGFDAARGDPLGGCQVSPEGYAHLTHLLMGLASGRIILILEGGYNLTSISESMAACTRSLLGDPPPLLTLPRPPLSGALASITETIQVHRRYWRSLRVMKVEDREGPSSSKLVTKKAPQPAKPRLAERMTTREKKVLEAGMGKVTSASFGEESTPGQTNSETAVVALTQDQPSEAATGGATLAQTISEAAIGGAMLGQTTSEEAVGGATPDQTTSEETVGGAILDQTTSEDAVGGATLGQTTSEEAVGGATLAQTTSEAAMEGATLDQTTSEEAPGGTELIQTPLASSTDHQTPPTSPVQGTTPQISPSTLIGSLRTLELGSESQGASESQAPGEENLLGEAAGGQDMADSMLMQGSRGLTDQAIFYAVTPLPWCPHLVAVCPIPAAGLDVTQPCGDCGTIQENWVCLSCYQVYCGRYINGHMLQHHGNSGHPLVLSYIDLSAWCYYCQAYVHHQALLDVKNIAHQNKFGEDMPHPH", "test": "HDAC6 enzyme activity assay (fluorogenic substrate Ac-GAK(Ac)-AMC)", "type": "biochemical", "conditions": "HDAC6 (Abcam), 20 µM substrate, 37°C 30 min", "excerpt": "The IC50 was obtained by fitting with GraphPad Prism 7.0 software."}, "[4]": {"test": "Phase I metabolic stability in liver microsomes", "type": "in vitro ADME, cynomolgus monkeys", "conditions": "CLM", "description": "as §1, §2, §3, §4, §5"}, "[5]": {"test": "Phase I metabolic stability in liver microsomes", "type": "in vitro ADME, Sprague-Dawley rats", "conditions": "RLM", "description": "as §1, §2, §3, §4, §5"}, "[6]": {"conditions": "60 min, buffer instead of NADPH regeneration system"}, "[7]": {"conditions": "60 min with NADPH regeneration system"}}}
{"smiles": "O=C(N[C@@H]1CCCC[C@H]1N1Cc2ccc(-c3nnc(C(F)F)o3)cc2S1(=O)=O)C(F)F", "note": "[I]", "values": [{"measurement": "Remaining Rate (NCF=60 min)", "setting": "[1]; [6]", "result": 90.9, "unit": "%"}, {"measurement": "Remaining Rate (T=60 min)", "setting": "[1]; [7]", "result": 85.8, "unit": "%"}, {"measurement": "Remaining Rate (NCF=60 min)", "setting": "[2]; [6]", "result": 99.8, "unit": "%"}, {"measurement": "Remaining Rate (T=60 min)", "setting": "[2]; [7]", "result": 84.8, "unit": "%"}, {"measurement": "IC50", "setting": "[3]", "result": 5.7, "unit": "nM"}, {"measurement": "Remaining Rate (NCF=60 min)", "setting": "[4]; [6]", "result": 101.5, "unit": "%"}, {"measurement": "Remaining Rate (T=60 min)", "setting": "[4]; [7]", "result": 88.8, "unit": "%"}, {"measurement": "Remaining Rate (NCF=60 min)", "setting": "[5]; [6]", "result": 93.0, "unit": "%"}, {"measurement": "Remaining Rate (T=60 min)", "setting": "[5]; [7]", "result": 76.4, "unit": "%"}]}
